Data taken from patent publication US20240299542A1, “NATURAL KILLER CELLS ENGINEERED TO REDUCE OR ELIMINATE CBL-B AND USES THEREOF” (City of Hope, priority 2021, published 2024).

Legend:
Assay type in all cases: cell-based, human
granzyme B [1] = assay: Granzyme B (GZMB) mRNA by qRT-PCR in siRNA-transduced NK cells; details: without or with IL-15 (10 ng/ml) 16 h, vs Scr siRNA
Description: (§1) FIGS. 3A-3E depict the results of a study showing that downregulation of Cbl-b enhances the cytotoxicity of primary human NK cells. (FIGS. 3A and 3B) Primary human NK cells transduced with Cbl-b siRNA or Scr siRNA for 24 h were stimulated without (FIG. 3A) or with (FIG. 3B) a low concentration of IL-15 (2 ng/ml) for 16 h, then co-cultured with ^51Cr labeled Molm-13, MV4-11 or EOL-1 leukemia cell lines for 4 h, followed by quantification of specific tumor cell lysis. Each experiment was repeated with 6 different normal donors. (FIG. 3C) qRT-PCR was performed to quantify the granzyme B (GZMB) mRNA levels (n=8 donors) in siRNA- and Scr siRNA-transduced primary human NK cells incubated without or with IL-15 (10 ng/ml) for 16 h. (FIG. 3D) The concentration of the granzyme B protein in the supernatants of Cbl-b siRNA- and Scr siRNA-transduced primary human NK cells incubated without (688.1 pg/ml vs 525.4 pg/ml; P=0.0232) or with IL-15 (10 ng/ml) for 24 h (8789 pg/ml vs 3397 pg/ml; P=0.0232) was measured by ELISA (n=8 donors). (FIG. 3E) The level of granzyme B protein in Cbl-b siRNA- and Scr siRNA-transduced primary human NK cells incubated without or with IL-15 (10 ng/ml) for 24 h was measured by immunoblot analysis. The data are representative of three experiments. Scr-scrambled; *P<0.05, **P<0.01, ***P<0.001, ****P<0.0001 by One-way or Two-way ANOVA; ns, not significant. […]

IFN-γ = IFN-γ mRNA by qRT-PCR in IL-15-activated siRNA-transduced NK cells; details: IL-15 (10 ng/ml) 6 h, vs Scr siRNA
Description: FIGS. 4A-4D depict the results of a study showing that downregulation of Cbl-b increases IFN-γ secretion in IL-15-activated primary human NK cells. (FIG. 4A) RNAseq was conducted using primary human NK cells transduced with either Cbl-b siRNA or Scr siRNA without or with incubation in IL-15 (10 ng/ml) for 16 h (4 donors for each group). […] (FIG. 4B) qRT-PCR was performed to quantify the mRNA levels of IFN-γ (n=6 donors) after IL-15 (10 ng/ml) 6 h stimulation. (FIG. 4C) The percentage of intracellular IFN-γ+ cells in un-transduced NK cells or those transduced with Cbl-b siRNA or Scr siRNA, each activated with IL-15 (10 ng/ml) for 24 h (11.5% vs 4.338%; P=0.0008; n=5 donors). (FIG. 4D) Supernatants were collected after IL-15 (10 ng/ml) for 24 h and IFN-γ concentrations measured by ELISA (18115 pg/ml vs 882.5 pg/ml; P=0.0099; n=7 donors). Scr-scrambled; *P<0.05, **P<0.01, ***P<0.001 by Student's two-tailed paired t-test or One-way ANOVA; ns, not significant. Data presented as mean±SEM.
Reverse transcription-polymerase chain reaction. Total RNA was isolated from primary NK cells with the RNeasy Mini Kit (Qiagen). Complementary DNA (cDNA) was generated by Moloney murine leukemia virus (M-MLV) reverse transcriptase (Invitrogen) and amplified by qPCR with SYBR Green PCR Master Mix (Applied Biosystems) and gene-specific primers. […]

granzyme B [2] = assay: Granzyme B protein by immunoblot in siRNA-transduced NK cells; details: without or with IL-15 (10 ng/ml) 24 h
Description: as §1, with “analysis.” for “analysis. The data are representative of three experiments. Scr-scrambled; *P<0.05, **P<0.01, ***P<0.001, ****P<0.0001 by One-way or Two-way ANOVA; ns, not significant.”
Immunoblotting. […] Densitometric analysis was performed to quantify intensity of gel bands with Image J (National Institutes of Health). […]

Substance: Cbl-b siRNA: Cbl-b-specific Accell siRNA (Dharmacon), SEQ ID NO:1, CCUUCAUGUUCAGAUGGUU (Accell modified siRNA, pattern not given here)
- Granzyme B mRNA (granzyme B [1]): significantly increased
- IFN-γ mRNA (IFN-γ): increased dramatically
- total GZMB protein (granzyme B [2]): increase of total GZMB protein
